According to ChEMBL document CHEMBL1127727, “Synthesis and structure-activity relationships of novel retinoid X receptor-selective retinoids” (J Med Chem, 1994):

Experiments:
[1] = biological target: T1, Retinoic acid receptor RXR-gamma (Mus musculus, UniProt P28705); assay: Inhibition of [3H]9-cis-RA binding to baculovirus expressed retinoid receptor RXR gamma
T1 sequence (P28705 whole entry): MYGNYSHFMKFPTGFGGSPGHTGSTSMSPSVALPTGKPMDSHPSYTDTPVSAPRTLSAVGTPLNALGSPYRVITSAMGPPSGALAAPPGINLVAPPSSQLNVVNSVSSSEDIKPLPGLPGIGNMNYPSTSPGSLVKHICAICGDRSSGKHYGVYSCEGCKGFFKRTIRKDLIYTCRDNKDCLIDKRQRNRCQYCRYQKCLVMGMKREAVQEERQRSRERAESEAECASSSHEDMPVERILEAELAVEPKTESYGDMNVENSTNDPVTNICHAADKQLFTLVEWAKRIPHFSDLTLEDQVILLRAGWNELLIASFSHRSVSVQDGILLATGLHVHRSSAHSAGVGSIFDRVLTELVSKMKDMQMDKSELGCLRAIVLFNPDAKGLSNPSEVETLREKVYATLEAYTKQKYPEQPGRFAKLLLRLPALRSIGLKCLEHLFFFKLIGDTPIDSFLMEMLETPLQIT

[2] = biological target: T1, Retinoic acid receptor RXR-gamma; assay: Effective concentration against retinoid receptor isoform (RXR gamma) expressed in CV-1 cells; type: cell-based
[3] = biological target: T2, Retinoic acid receptor RXR-alpha (Homo sapiens, UniProt P19793)
T2 sequence (P19793 whole entry): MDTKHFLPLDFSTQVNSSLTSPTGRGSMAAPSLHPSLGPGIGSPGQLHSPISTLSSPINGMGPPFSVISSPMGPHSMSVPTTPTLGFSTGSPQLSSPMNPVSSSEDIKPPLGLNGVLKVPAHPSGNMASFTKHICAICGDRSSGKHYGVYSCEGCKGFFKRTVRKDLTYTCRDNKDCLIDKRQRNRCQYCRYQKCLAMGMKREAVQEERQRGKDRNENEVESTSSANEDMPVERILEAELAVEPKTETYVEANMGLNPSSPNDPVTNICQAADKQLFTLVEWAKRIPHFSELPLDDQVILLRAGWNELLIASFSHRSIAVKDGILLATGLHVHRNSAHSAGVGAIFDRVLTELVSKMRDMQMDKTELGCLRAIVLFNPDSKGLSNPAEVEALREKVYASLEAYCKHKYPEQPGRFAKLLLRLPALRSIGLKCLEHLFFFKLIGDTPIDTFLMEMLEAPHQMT
Description: Effective concentration against retinoid receptor isoform (RXR alpha) expressed in CV-1 cells

[4] = biological target: T3, Retinoic acid receptor beta (Homo sapiens, UniProt P10826); assay: Effective concentration against retinoid receptor isoform (RAR beta) expressed in CV-1 cells; type: cell-based
T3 sequence (P10826 whole entry): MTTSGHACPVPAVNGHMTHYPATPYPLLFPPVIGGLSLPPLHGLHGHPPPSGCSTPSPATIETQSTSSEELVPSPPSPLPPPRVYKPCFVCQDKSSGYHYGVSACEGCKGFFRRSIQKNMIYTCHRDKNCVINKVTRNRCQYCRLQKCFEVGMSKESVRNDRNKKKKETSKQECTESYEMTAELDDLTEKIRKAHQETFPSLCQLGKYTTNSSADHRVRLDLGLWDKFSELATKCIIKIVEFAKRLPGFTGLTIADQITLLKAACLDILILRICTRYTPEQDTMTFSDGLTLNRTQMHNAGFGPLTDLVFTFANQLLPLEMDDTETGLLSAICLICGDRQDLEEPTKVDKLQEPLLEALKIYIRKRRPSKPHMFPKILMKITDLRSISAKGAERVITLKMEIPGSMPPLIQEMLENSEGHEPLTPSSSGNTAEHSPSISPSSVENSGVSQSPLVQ

[5] = biological target: T4, Retinoic acid receptor alpha (Homo sapiens, UniProt P10276); assay: Inhibition of [3H]ATRA binding to baculovirus expressed retinoid receptor RAR alpha
T4 sequence (P10276 whole entry): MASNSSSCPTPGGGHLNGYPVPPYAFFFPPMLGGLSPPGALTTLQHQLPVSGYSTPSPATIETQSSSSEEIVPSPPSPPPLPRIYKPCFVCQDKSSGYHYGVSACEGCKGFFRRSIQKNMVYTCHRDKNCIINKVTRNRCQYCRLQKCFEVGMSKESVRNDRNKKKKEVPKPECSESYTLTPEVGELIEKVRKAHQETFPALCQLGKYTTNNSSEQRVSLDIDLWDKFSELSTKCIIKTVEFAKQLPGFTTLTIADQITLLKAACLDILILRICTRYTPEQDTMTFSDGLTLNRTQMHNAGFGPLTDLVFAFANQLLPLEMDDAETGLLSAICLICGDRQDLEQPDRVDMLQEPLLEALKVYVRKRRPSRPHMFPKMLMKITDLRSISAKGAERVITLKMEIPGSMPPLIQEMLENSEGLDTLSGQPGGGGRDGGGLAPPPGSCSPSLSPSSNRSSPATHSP

[6] = biological target: T5, Retinoic acid receptor RXR-beta (Mus musculus, UniProt P28704); assay: Inhibition of [3H]9-cis-RA binding to baculovirus expressed retinoid receptor RXR beta
T5 sequence (P28704 whole entry): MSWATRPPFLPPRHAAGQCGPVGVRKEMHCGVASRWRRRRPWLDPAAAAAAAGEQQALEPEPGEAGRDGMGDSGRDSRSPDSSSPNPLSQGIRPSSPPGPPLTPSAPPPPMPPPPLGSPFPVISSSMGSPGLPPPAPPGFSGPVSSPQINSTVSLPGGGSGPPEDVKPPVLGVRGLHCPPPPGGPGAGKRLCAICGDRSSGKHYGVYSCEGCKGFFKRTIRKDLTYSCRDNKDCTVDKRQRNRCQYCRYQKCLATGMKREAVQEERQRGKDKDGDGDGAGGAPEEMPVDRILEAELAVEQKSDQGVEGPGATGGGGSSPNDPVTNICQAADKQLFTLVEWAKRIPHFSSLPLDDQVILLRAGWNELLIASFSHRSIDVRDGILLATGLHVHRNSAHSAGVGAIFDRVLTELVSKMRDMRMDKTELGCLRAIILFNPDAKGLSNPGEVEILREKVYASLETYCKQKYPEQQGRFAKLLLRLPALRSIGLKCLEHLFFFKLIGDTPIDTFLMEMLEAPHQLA

[7] = biological target: T5, Retinoic acid receptor RXR-beta; assay: Effective concentration against retinoid receptor isoform (RXR beta) expressed in CV-1 cells; type: cell-based
[8] = biological target: T3, Retinoic acid receptor beta; assay: Inhibition of [3H]ATRA binding to baculovirus expressed retinoid receptor RAR beta
[9] = biological target: T6, Retinoic acid receptor gamma (Homo sapiens, UniProt P13631); assay: Tested for binding affinity against [3H]-ATRA binding to retinoid receptor isoform (RAR gamma) expressed in baculovirus
T6 sequence (P13631 whole entry): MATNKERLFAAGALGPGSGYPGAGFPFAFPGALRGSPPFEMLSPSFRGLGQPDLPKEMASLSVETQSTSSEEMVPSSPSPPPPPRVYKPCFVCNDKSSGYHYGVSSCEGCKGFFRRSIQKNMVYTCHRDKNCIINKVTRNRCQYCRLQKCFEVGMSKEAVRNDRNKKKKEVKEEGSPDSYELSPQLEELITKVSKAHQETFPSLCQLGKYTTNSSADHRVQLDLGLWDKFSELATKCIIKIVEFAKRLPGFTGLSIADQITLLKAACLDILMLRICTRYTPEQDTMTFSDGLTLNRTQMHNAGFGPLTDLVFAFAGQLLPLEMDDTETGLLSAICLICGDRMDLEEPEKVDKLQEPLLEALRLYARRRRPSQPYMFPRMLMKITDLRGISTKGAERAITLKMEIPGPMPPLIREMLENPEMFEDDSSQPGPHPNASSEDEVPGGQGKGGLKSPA

[10] = biological target: T6, Retinoic acid receptor gamma; assay: Effective concentration against retinoid receptor isoform (RAR gamma) expressed in CV-1 cells; type: cell-based
[11] = biological target: T2, Retinoic acid receptor RXR-alpha; remark: listed apart in the source
Description: Inhibition of [3H]9-cis-RA binding to baculovirus expressed retinoid receptor RXR alpha

[12] = biological target: T4, Retinoic acid receptor alpha; assay: Effective concentration against retinoid receptor isoform (RAR alpha) expressed in CV-1 cells; type: cell-based
[13] = biological target: T4, Retinoic acid receptor alpha; assay: Inhibition of [3H]-ATRA binding to baculovirus expressed retinoid receptor RAR alpha

Kd [1] [nM]	EC50 [2] [nM]	EC50 [3] [nM]	EC50 [4] [nM]	Kd [5] [nM]	Kd [6] [nM]	EC50 [7] [nM]	Kd [8] [nM]	Kd [9] [nM]	EC50 [10] [nM]	Kd [11] [nM]	EC50 [12] [nM]	Kd [13] [nM]	SMILES
113	230	83	> 10000	> 1000	191	198	> 1000	> 1000	> 10000	96	> 10000		C=C(c1ccc(C(=O)O)cc1)c1cc2c(cc1OC)C(C)(C)CCC2(C)C
35	43	51	> 10000		34	59	> 1000	> 1000	> 10000	28	> 10000	> 1000	C=C(c1ccc(C(=O)O)cc1)c1cc2c(cc1Br)C(C)(C)CCC2(C)C
94	383	197	337		108	189	> 1000	> 1000	397	69	> 10000	> 1000	C=C(c1ccc(C(=O)O)cc1)c1cc2c(cc1F)C(C)(C)CCC2(C)C
